# Source: patent US11110098B2, “Methods and medicaments for the treatment of renal cell carcinoma” (University of Kansas, priority 2017, dated 2021)
# Assays:
# 786-O cells [1] = assay: Cell cycle analysis (propidium iodide, FACS), 786-O cells; type: cell-based, human; conditions: 24 h, 10 μM or higher doses
# Experimental: (§1) 786-O and Caki-1 cells were incubated for 24 h with 0, 1, 5, 10, 25 or 50 μM of OPC31260, and stained with propidium iodide for analysis by flow cytometry. Cells were rinsed with PBS and trypsinized, and washed twice with PBS. Single-cell suspensions were fixed using pre-chilled 70% ethanol overnight, and subsequently permeabilized with PBS containing 0.1% Triton X-100, 1 mg/ml propidium iodide (Sigma-Aldrich) and 2 mg/ml DNase-free RNase at room temperature. Flow cytometry was done with a FACS Calibur analyzer (Becton Dickinson, Mountain, View, Calif.), capturing 10,000 events for each sample. Results were analyzed with ModFit LT™ software (Verity Software House, Topsham, Me.).
# Caki-1 cells [2] = assay: TUNEL assay for apoptosis in xenograft tumor sections; type: in vivo, Nu/Nu mice; conditions: OPC31260 IP, tolvaptan 120 mg/Kg oral, dDAVP 1 μg/Kg IP, daily 28 days
# Experimental: (§2) Female Athymic Nude-Foxn1^nu mice (Nu/Nu mice), 7-8 weeks old and weighing ˜25 g were procured from Envigo/Harlan. All animal studies were carried out according to the protocols approved by the University of Kansas Medical Center Institutional Animal Care and Use Committee. Mice were subcutaneously injected on the right flank region with 1×10^6 Caki-1 cells in 100 μl of DMEM medium. One week after injection, palpable tumors appeared and tumor volume was measured with calipers following the formula, […]. Once the tumor volume reached ˜80-100 mm^3, mice were randomized into sub-groups based on the tumor volume. Animals were administered vehicle, OPC31260 (30 mg/Kg BWt.), OPC31260 (60 mg/Kg BWt) or dDAVP (1 μg/Kg BWt.) and vehicle (saline) by daily intraperitoneal injection, or tolvaptan (120 mg/Kg BWt. in 1% aqueous solution of hydroxypropyl methylcellulose-dose derived from previous study^31) or vehicle by daily oral gavage for 28 days. Body weights and tumor volumes were measured every alternate day. At the end of the study, mice were injected with BRDU (100 mg/Kg BWt. by IP) 90 minutes before sacrifice. Tumors were harvested, photographed and weighed. Tumors were flash frozen or paraffin embedded for further analysis.
# TUNEL assays were performed to check apoptosis using the in situ Cell Death Detection Kit (Roche Applied Science, Indianapolis, Ind.). Briefly, slides with 5-μm tumor sections were treated to a TUNEL reaction mixture containing terminal deoxynucleotidyl transferase and nucleotides, including tetramethylrhodamine-labeled dUTP. Both Dapi stained and TUNEL-positive nuclei were counted as described for proliferating cell nuclear antigen. All images were captured using a Nikon 80i microscope (Tokyo, Japan) in the KUMC Imaging Center.
# 786-O cells [3] = assay: Western blot of cell lysate, 786-O cells; type: cell-based, human; conditions: 24 h
# Text: (§3) Tumors from mouse xenografts and cultured 786-O and Caki-1 cells were homogenized in SDS Laemmli buffer and loaded onto 10% SDS-polyacrylamide agarose gel electrophoresis gels, transferred to nitrocellulose membranes and blocked with 5% milk in TBST^32. Membranes were probed with primary antibody followed by wash and horseradish peroxidase secondary antibody application.
# [4] = system: pERK1/2, ERK1/2, pCREB, CREB, VEGF; assay: Immunoblotting of xenograft tumor lysates; type: in vivo, Nu/Nu mice; conditions: tolvaptan 120 mg/Kg oral
# Experimental: as §2, §3
# Caki-1 cells [5] = assay: Clonogenic assay, Caki-1 cells; type: cell-based, human; conditions: 48 h treatment, 10 days growth
# Experimental: (§4) 786-O and Caki-1 cells were plated at very low density (1,000 cells/well) in six-well plates. After 16 h, cells were treated with different doses of OPC31260 and incubated for 48 h. Cells were washed and grown for 10 days until visible colonies formed. Colonies were fixed with 4% paraformaldehyde in PBS, stained with 0.25% crystal violet in 25% methanol, washed, air-dried and photographed. Crystal violet was dissolved in sodium citrate buffer (0.1M, 50% ethanol, pH 4.2) and absorbance was recorded at 590 nm.
# Caki-1 cells [6] = assay: Immunostaining of xenograft tumor sections (Ki-67, BRDU, CD31); type: in vivo, Nu/Nu mice; conditions: OPC31260 IP, tolvaptan 120 mg/Kg oral, dDAVP 1 μg/Kg IP, daily 28 days
# Experimental: as §2
# Tumor tissues were fixed overnight in 4% paraformaldehyde, dehydrated in a graded alcohol series, and embedded in paraffin for histological analysis as previously described^26. Slides with 5 μm tissue sections were heated in a steamer for 20 min in citrate buffer (pH 6.0) to unmask antigens. Slides were further blocked with 10% goat serum (Invitrogen) and then incubated overnight with primary antibody (V2R, CD31, BRDU, Ki67 and p-H3). After washing the slides with PBST, slides were incubated with appropriate fluorescence-labeled secondary antibody (Invitrogen) and streptavidin HRP conjugated (Invitrogen) secondary antibody for immunoflurorescence and immunohistochemistry, respectively. Slides were also incubated in 4′,6-diamidino-2-phenylindole to visualize nuclei. For immunofluorescence staining, slides were mounted with Fluoromount G (Southern Biotech). For immunohistochemistry, slides were developed with DAB (Vector Laboratories) and counterstained with Harris haematoxylin, dehydrated, and mounted with Permount (Fisher Scientific, Waltham, Mass.). All images were captured using a Nikon 80i microscope (Tokyo, Japan) at the KUMC Imaging Center.
# CCRCC = assay: Immunocompetent animal model of spontaneous CCRCC; type: in vivo, Vh1Δ/ΔTrp53Δ/ΔRb1Δ/Δ mice; conditions: treatment from 30 weeks after start of tamoxifen till 56 weeks
# Text: The Vh1^Δ/ΔTrp53^Δ/ΔRb1^Δ/Δ mice (Harlander S et al, Nat Med 2017 23(7):869-877) can spontaneously develop CCRCC. Gene deletion of Vhl and tumor suppressors p53 and Rb 1 will be achieved using a Ksp1.3-CreERT2, tamoxifen-inducible system. For the studies, 6-week old Vh1^Δ/ΔTrp53^Δ/ΔRb1^Δ/ΔKsp1.3-CreERT2 mice will be treated with vehicle (saline) or tamoxifen for 14 days used to obtain wildtype control mice and Vh1^Δ/ΔTrp53^Δ/ΔRb1^Δ/Δ mice with RCC stumors. Starting 30 weeks after start of tamoxifen, the wildtype and Vh1^Δ/ΔTrp53^Δ/ΔRb1^Δ/Δ mice will be treated with vehicle, dDAVP, OPC31260, or tolvaptan till 56 weeks. The effect of V2R activation or inhibition will be monitored by MRI as well as by gross and pathological analysis and of kidneys at sacrifice.
# Caki-1 cells [7] = assay: Cell cycle analysis (propidium iodide, FACS), Caki-1 cells; type: cell-based, human; conditions: 24 h, 10 μM or higher doses
# Experimental: as §1
# 786-O cells [8] = assay: Clonogenic assay, 786-O cells; type: cell-based, human; conditions: 48 h treatment, 10 days growth
# Experimental: as §4
# [9] = type: in vivo; conditions: OPC31260 30 and 60 mg/Kg, daily intraperitoneal, 28 days
# Experimental: as §2
# [10] = OPC31260 30/60 mg/kg IP, dDAVP 1 μg/Kg IP, 28 days
structure (smiles),measurement,setting,value
"Cc1ccccc1C(=O)Nc1ccc(C(=O)N2CCCC(N(C)C)c3ccccc32)cc1 (centres unmarked) [OPC31260, 5-(dimethylamino)-1-[4-(2-methylbenzamido)benzoyl]-2,3,4,5-tetrahydro-1H-benzazepine]",cells in G2/M phase,786-O cells [1],60-70%
same,TUNEL staining of tumors compared to vehicle,Caki-1 cells [2],increased
same,pCREB levels,786-O cells [3],dose-dependently reduced
same,pERK1/2 levels,786-O cells [3],dose-dependently reduced
same,CREB levels in tumor lysates,"[4]; OPC31260 30/60 mg/kg IP, 28 days",reduced
same,pCREB levels in tumor lysates,[4]; [10],reduced
same,pERK1/2 levels in tumor lysates,[4]; [10],reduced
same,VEGF protein levels in tumors compared to vehicle,"[4]; OPC31260 IP, dDAVP 1 μg/Kg IP, daily 28 days",significantly reduced
same,dose from which a significant decline in colony formation was observed,Caki-1 cells [5],10 µM
same,BRDU staining / incorporation of tumors compared to vehicle,Caki-1 cells [6],significantly reduced
same,Ki-67 staining of tumors compared to vehicle,Caki-1 cells [6],significantly reduced
same,tumor micro-vessel density (CD31 staining),Caki-1 cells [6],significantly reduced
same,expected tumor burden / tumor growth,CCRCC,significantly suppress tumor growth
same,cells in G2/M phase,Caki-1 cells [7],60-70%
same,dose from which a significant decline in colony formation was observed,786-O cells [8],5 µM
same,body weight of the mice,[9],did not significantly change
same,urine osmolality,[9],reduced urine osmolality in a dose dependent manner
